# According to article PMC9750872, “Ras-mutant cancers are sensitive to small molecule inhibition of V-type ATPases in mice” (Nature biotechnology, 2022):
# Legend:
# [1] = molecular target: T1, entire mammalian V-ATPase complex (Sus scrofa, UniProt Q9TVC1); assay: Bio-layer interferometry (BLI); assay type: binding, porcine; conditions: biotinylated-249C on streptavidin sensors
# T1 construct: the entire V-ATPase complex (800 kDa) was purified as described previously from porcine kidneys; from tissue; host or cells: porcine kidney
# T1 sequence (Q9TVC1 whole entry): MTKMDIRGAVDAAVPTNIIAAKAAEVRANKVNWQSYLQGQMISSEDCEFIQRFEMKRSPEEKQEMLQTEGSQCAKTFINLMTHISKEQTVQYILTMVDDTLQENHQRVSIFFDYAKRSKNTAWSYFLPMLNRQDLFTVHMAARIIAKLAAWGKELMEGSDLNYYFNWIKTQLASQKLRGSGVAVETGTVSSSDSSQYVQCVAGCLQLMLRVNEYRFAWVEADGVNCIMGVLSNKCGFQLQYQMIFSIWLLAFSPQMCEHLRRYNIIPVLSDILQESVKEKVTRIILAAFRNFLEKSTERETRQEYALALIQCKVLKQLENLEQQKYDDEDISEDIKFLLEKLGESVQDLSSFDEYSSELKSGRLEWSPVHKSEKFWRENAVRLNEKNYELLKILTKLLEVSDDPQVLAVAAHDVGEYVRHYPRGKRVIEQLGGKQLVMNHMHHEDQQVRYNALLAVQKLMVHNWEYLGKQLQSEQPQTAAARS
# T1 sequence (Q29048 whole entry partner): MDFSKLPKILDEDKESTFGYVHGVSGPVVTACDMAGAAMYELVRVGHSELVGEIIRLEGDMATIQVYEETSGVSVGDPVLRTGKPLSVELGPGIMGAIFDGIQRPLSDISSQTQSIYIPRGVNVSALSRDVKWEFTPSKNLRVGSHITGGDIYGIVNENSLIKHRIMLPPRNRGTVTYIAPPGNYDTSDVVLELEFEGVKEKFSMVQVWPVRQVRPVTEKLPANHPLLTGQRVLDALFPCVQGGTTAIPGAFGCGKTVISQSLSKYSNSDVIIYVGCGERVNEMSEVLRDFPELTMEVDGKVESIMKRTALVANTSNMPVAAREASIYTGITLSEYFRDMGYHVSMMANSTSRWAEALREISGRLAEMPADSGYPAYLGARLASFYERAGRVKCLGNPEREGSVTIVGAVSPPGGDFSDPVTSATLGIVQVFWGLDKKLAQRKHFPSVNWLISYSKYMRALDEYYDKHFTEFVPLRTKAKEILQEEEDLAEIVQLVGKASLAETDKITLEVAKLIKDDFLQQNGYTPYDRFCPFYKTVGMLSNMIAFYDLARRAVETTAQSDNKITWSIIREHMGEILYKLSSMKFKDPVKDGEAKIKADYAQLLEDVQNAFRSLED
# From the text: Figure 4. […] (A) Model of the reversible assembly of V-ATPase. Cytosolic V1 subunits are depicted in blue and membrane Vo subunits in purple. Upon V-ATPase assembly, ATP is hydrolyzed to ADP accompanied by proton (H^+) pumping and luminal acidification (decrease in pH) (Created with BioRender). […] The amount of subunit B2 present in the membrane fraction indicates the amount of assembled V-ATPase. A representative Western blot is presented. […] Cells were mechanically lysed, and a fraction containing FITC-Dextran-loaded lysosomes was isolated by sedimentation centrifugation. Fluorescence was measured over time to assess pH-dependent quenching following addition of 1 mM magnesium-ATP (predetermined). […] Representative of 5 individual experiments with n = 3 for each is presented (mean ± SD) (D) Mammalian V-ATPase activity measured in the absence and presence of 1 μM 249C and 1 μM BafA1. Data shown are mean ± SD; n = 3. Bio-layer inferometry (BLI) of (E) the entire mammalian V-ATPase complex (association protein concentrations: 30, 60, 120, 240 nM) and (F) the individual human H subunit (ATP6V1H) (association protein concentrations: 16,800 and 21,000 nM) against biotinylated-249C loaded onto streptavidin sensor tips. A reference sensor was subtracted from the signal to blank the system. The ForteBio Octet® Software on the BLI system was used to calculate Kd s. […]
# [2] = tested on: SW48 KRASG12D/+ xenografts; assay: SW48 isogenic colon xenograft; assay type: in vivo, mouse; conditions: 10 mg/kg i.p., 14 days of treatment
# From the text: (§1) To explore the relationship between individual KRAS mutants and 249C sensitivity in vivo, we used a colon cancer (SW48) xenograft model with a set of colon cancer cell lines which differ in KRAS mutation status but are otherwise genetically matched. Stable derivatives of the SW48 cell line were derived by introducing a KRASG12D, KRASG12V or KRASG13D point mutation via rrAV gene editing technology previously reported. To compare KRAS mutants in a cancer-relevant system, four cell lines: (SW48, SW48 KRASG12D/+, SW48 KRASG12V/+ and SW48 KRASG13D/+) were injected into athymic mice and 14 days of treatment (10 mg/kg 249C or vehicle control, i.p., n = 5 for all arms) was started when the average tumor volume reached approximately 100–200 mm^3 following random segregation into groups. As before, KRASG13D tumors were most sensitive to 249C both in vitro and in vivo (Fig. 6d–e). […] Changes in tumor volume are presented for animals bearing isogenic SW48 cells: parental/KRASWT (Fig. 6f), KRASG12D/+ (Fig. 6g), KRASG12V/+, (Fig. 6h), KRASG13D/+ (Fig. 6i). Note that SW48 tumors with different KRAS variants show different basal growth rates, as reported previously. […] Further, no significant changes in body weight of the mice were observed during the study (Fig. 6j).
# (§2) For cell line xenografts, 6 × 10^6 SW48 cells were subcutaneously injected into the flanks of 6–8-week old athymic nude female mice (Taconic model # NCRNU-F, CrTac:NCR-Foxn1 sp/sp) and tumor growth was monitored with caliper measurement. Once the mean tumor reached a certain volume (between 100–200 mm^3), animals were randomized into different treatment groups of 5 animals per group. 249C for in vivo use was formulated in 0.5% Methylcellulose and dosed i.p. (10 mg/kg, for 2 weeks). Antitumor activity was determined by calculating the treatment over control (T/C) tumor volume ratio at the end of the study. Either at the end of each study, of if any animal reached a humane endpoint, animals were euthanized with CO2 followed by cervical dislocation or another secondary method of euthanasia approved by the IACUC protocol. Mouse manipulations were performed in accordance with UCSF’s IACUC protocol AN179973.Mice were housed in the UCSF Animal Care Facility LARC at the Helen Diller Family Cancer Center at UCSF Mission Bay. Mice were housed in a specific-pathogen free individual suite. They are housed up to 5 per cage in ventilator cages, with ad libitum food and water on a 12-hour light cycle and controlled temperature and humidity conditions (67–74°F and 30–70%).
# [3] = tested on: SW48 KRASG13D/+ xenografts; assay: SW48 isogenic colon xenograft; assay type: in vivo, mouse; conditions: 10 mg/kg i.p., 14 days of treatment
# From the text: as §1, §2
# [4] = tested on: SW48 parental (KRAS WT) xenografts; assay: SW48 isogenic colon xenograft; assay type: in vivo, mouse; conditions: 10 mg/kg i.p., 14 days of treatment
# From the text: as §1, §2
# [5] = tested on: SW48 KRASG12V/+ xenografts; assay: SW48 isogenic colon xenograft; assay type: in vivo, mouse; conditions: 10 mg/kg i.p., 14 days of treatment
# From the text: as §1, §2
smiles,measurement,setting,value
CN1CCOC(CNC(=O)C2(C)C(c3ccc(Cl)o3)C(c3ccc(F)cc3F)=NN2c2ccc(F)cc2F)C1 (centres unmarked) [Compound 249C],Kd,[1],23 nM
same,Treatment/Control on Day 21,[2],75%
same,Tumor Growth Inhibition (TGI) on Day 21,[2],25%
same,Treatment/Control on Day 21,[3],18%
same,Tumor Growth Inhibition (TGI) on Day 21,[3],82%
same,Tumor Growth Inhibition (TGI) on Day 21,[4],0%
same,Treatment/Control on Day 21,[5],55%
same,Tumor Growth Inhibition (TGI) on Day 21,[5],45%
